Entries after “also recorded” stand apart in the source; their conditions may differ. Read-outs that look alike come from different tables or passages of the source.
Legend:
[1] = test system: Htt138Q aggregate formation; assay: Htt-Q138 aggregation-inhibition screening of small molecules in Drosophila primary neural cultures (automated microscopy); type: cell-based; settings: for Htt-Q138 aggregate formation (effect in words): range of concentrations (56 μM, 5.6 μM); for Htt-Q138 aggregation (effect in words): Htt-Q138 primary neural cultures
Description: Primary Cell Culture. Elav^c155-GAL4 virgins were collected en-masse and crossed to either UAS-Htt-Q138-mRFP^1, UAS-mCD8-GFP or UAS-HttQ15-mRFP^1, UAS-mCD8-GFP males to generate embryos for primary culture preparation. Neuroblasts were isolated as described (Sepp et al., 2008).
Compound screening: Primary cultures were re-suspended directly in Shields and Sang M3 media (Sigma) supplemented with 10 U/mL penicillin, 10 μg/mL streptomycin, 200 ng/mL insulin, and 5% fetal bovine serum. […] of compounds from arrayed small-molecule libraries (NINDS Custom Collection 2, Prestwick) Collection, BIOMOL2 ICCB-Longwood Known Bioactives High Concentration, various concentration from 1-15 mM in DMSO) were applied to 50 μL of cultures 24 hours after plating on optical bottom 384-well plates (Corning 3712). The neuroblast density was 18,500 cells/well. The primary screen was carried out in duplicate and hits were validated with 12 additional replicate wells.
(§1) Microscopy: For high-content screening mature 7-day old cultures were imaged with an ImageXpress^MICRO robotic microscope (Molecular Devices, Sunnyvale, Calif.) using a 10× objective and FITC/Cy3 filter sets. Images were 1392×1040 pixels, or 897×670 micrometers. Laser-based autofocusing was used to locate plate bottoms, and then image-based focusing used to resolve fluorescently labeled neurons over a 48 μm range. The GFP and mRFP channels were imaged in the same focal plane, with exposure times of 850 and 400 ms respectively. Three sites were imaged per well for each treatment group, and the screen was done in duplicate. For confocal microscopy of primary cultures, neuroblasts were plated on poly-L-lysine coated chambered cover slips (LabTekII, 0.8 cm^2/well) at 18,300 cells/well in 50 μL volume. Small molecules were added to cultures 24 hours after plating, incubated for 7 days, and then imaged with a Leica TCS-SP2 confocal LSM microscope.
(§2) Digital Image Analysis of High Content Screening Data Sets: Neuronal morphological analysis and Htt aggregate quantification for automated microscopy images was performed as previously described (Schulte et al., Wu et al.). In brief, Htt-Q138 aggregates were quantified as the total number of pixels/image with an intensity higher than an empirically set threshold. Statistical analysis was conducted using a two sample t-test. To quantify neuronal morphologies, cell body clusters (neuromeres) and neurites were extracted from images using our custom algorithms (Wu et al.). […] Absolute counts of neuromeres/bin were tabulated for all images. Neurite segment lengths were similarly clustered into three groups (short, medium, and long) using the K-means method and then quantified. Cell cluster and neurite counts were converted into percentages to control for any variation in cell number between wells arising from pipetting error. Mean neuromere area and neurite length for each image were also calculated to give a total of eight morphological metrics for image morphology quantification. For statistical analysis, p-values for each morphological feature were calculated using a two sample t-test (e.g. small neuromere feature of Htt-Q138 drug-treated cultures versus small neuromere feature of Htt-Q15 DMSO cultures). The resultant morphological p-values for individual features were then integrated into a single p-value using the Fisher method (Fisher 1932) defined by the equation χ^2=−2Σi=1^k loge(pi), where k represents independent tests, pi is the p-value of the i-th feature. The combined statistic has a χ^2 distribution with 2k degrees of freedom under the joint null hypothesis. This method works well in cases where the evidence against the null-hypothesis is spread across different features. Excluded from analysis were compound-treated wells with <6 images, out-of-focus images, or images that lacked cell profiles altogether.

[2] = test system: Htt-Q138 expressing Drosophila primary neural cultures; assay: Morphological analysis of small-molecule treated Htt-Q138 primary neural cultures versus Htt-Q15 controls; type: cell-based; settings: for Morphology profiles of Q138 expressing neurons (effect in words): Htt-Q138 primary neural cultures, compared with Htt-Q15 controls
Description: Primary Cell Culture. Elav^c155-GAL4 virgins were collected en-masse and crossed to either UAS-Htt-Q138-mRFP^1, UAS-mCD8-GFP or UAS-HttQ15-mRFP^1, UAS-mCD8-GFP males to generate embryos for primary culture preparation.
Compound screening: Primary cultures were re-suspended directly in Shields and Sang M3 media (Sigma) supplemented with 10 U/mL penicillin, 10 μg/mL streptomycin, 200 ng/mL insulin, and 5% fetal bovine serum. […] The neuroblast density was 18,500 cells/well. The primary screen was carried out in duplicate and hits were validated with 12 additional replicate wells.
as §1, with “Images were 1392×1040 pixels, or 897×670 micrometers.” left out
as §2, with “The resultant morphological p-values for individual features were then integrated into a single p-value using the Fisher method (Fisher 1932) defined by the equation χ^2=−2Σi=1^k loge(pi), where k represents independent tests, pi is the p-value of the i-th feature.” left out

[3] = test system: Htt-Q138 expressing primary neural cultures; assay: In vitro validation of screen hits by confocal microscopy of primary cultures on glass coverslips; type: cell-based, Drosophila; settings: for Aggregate formation (confocal): 56 μM, Htt-Q138 expressing cultures
Description: FIG. 4. In vitro validation of small molecule screen hits. Confocal microscopy images of primary cultures plated on glass coverslips and treated with either DMSO (A,B) or test compounds (C,D). […] HttQ15 is soluble and fills most neurite processes. […] (E) Quantification of altered Htt138Q distribution following Camptothecin treatment.
as §1

[4] = test system: HD larvae (Elav^c155-GAL4; UAS-Htt-Q138/+); assay: In vivo rescue: viability of HD larvae after 5-day drug dosing in liquid culture; set-up: species or system Drosophila; settings: larvae reared in liquid culture, 5-day dosing, compared to DMSO-treated controls
Description: In vivo Rescue studies: For small molecule in vivo rescue studies, Elav^c155; UAS-Htt-Q138-mRFP^1, UAS-mCD8-GFP/+1st instar larvae were collected en-masse and dispensed into liquid yeast media (10 larvae/well) containing therapeutic agents at three different concentrations as described in the results (n=8 replicas/concentration). Cultures were reared at 21° C. and larval viability was assessed after 5 days and the mean number of living Htt138Q larvae (i.e. GFP^+, Htt138QmRFP^+, and mobile) was tabulated, and expressed as a percentage of total larvae/well. For genetic rescue studies with lkb1, two Htt138Q strains were utilized: a strong expressing line, UAS-Htt138QmRFP^1 which is pharate lethal when crossed to Elav^c155, and a weaker expressing line, UAS-Htt138QmRFP^2 which survives to adulthood and is viable for a number of weeks. Using the strong line, pharate lethality at 25° C. was calculated after lkb1 (lkb1^4B1-11 and lkb1^4A4-2 alleles) was introduced into an Elav^c155, UAS-Htt/+background. Lkb1^4B1-11 is a premature truncation allele (Q98>Stop), and lkb1^4A4-2 is an EMS null allele (589 b.p. deletion removing 150 b.p. of the 5′ UTR, the start codon and the beginning of the open reading frame). For Top1 in vivo analysis, Elav^c155, Top^112 recombinants were generated and crossed to UAS-Htt138QmRFP^1.
To further examine the RNAi/small molecule screen hits, we assayed in vivo efficacy by testing their ability to rescue lethality in our Drosophila HD model. […] Specific inhibitors of Lkb1 were not available for in vivo testing.

NP-3 mouse HD model = settings: cited from earlier work
PC12 cells = settings: cited from earlier work
gap junction = settings: cited from earlier work
[5] = Solubility / precipitation in cultures; type: physicochemical; settings: liquid cultures

## CCC1(O)C(=O)OCc2c1cc1n(c2=O)Cc2cc3cc(O)ccc3nc2-1 (centres unmarked) [10-OH-Camptothecin]
[1]
  Htt-Q138 aggregate formation (effect in words): rescue aggregate formation
[2]
  Dystrophic morphology profiles (effect in words): partially reverting dystrophic morphology profiles
  Morphology profiles of Q138 expressing neurons (effect in words): Rescue of Htt-Q138 mutant morphology
[3]
  Aggregate formation (confocal): reduces aggregate formation
[4]; listed as 10-Hydroxycamptothecin
  Viability of Htt-Q138 expressing larvae / rescue of Htt-Q138 lethality: increased larval longevity in vivo, but to a lesser extent than Rapamycin; also recorded: more efficacious than Camptothecin

## C=C1[C@@H](O)[C@@H]2O[C@]3(CC[C@H](/C=C/[C@@H](C)[C@@H]4CC(C)=C[C@@]5(O[C@H](C[C@@](C)(O)C(=O)O)CC[C@H]5O)O4)O3)CC[C@H]2O[C@@H]1[C@@H](O)C[C@H](C)[C@H]1O[C@@]2(CCCCO2)CC[C@H]1C [Okadaic acid]
[1]
  Htt-Q138 aggregation (effect in words): suppress Htt-Q138 aggregation
[2]
  Morphology profiles of Q138 expressing neurons (effect in words): exacerbated the mutant Htt-Q138 mutant morphology

## CO[C@H]1C[C@@H]2CC[C@@H](C)[C@@](O)(O2)C(=O)C(=O)N2CCCC[C@H]2C(=O)O[C@H]([C@H](C)C[C@@H]2CC[C@@H](O)[C@H](OC)C2)CC(=O)[C@H](C)/C=C(\C)[C@@H](O)[C@@H](OC)C(=O)[C@H](C)C[C@H](C)/C=C/C=C/C=C/1C [Rapamycin]
[2]; primary neural cultures
  Neurotoxic properties / morphological defects in cultures: reduced axon outgrowth, neuromere size, and suppressed GFP expression

## O=C1Nc2ccc(I)cc2/C1=C/c1cc(Br)c(O)c(Br)c1 [GW5074]
[1]
  Htt-Q138 aggregation (effect in words): reduced Htt-Q138 aggregation; also recorded: inhibited mutant Hu aggregate formation
[2]
  Neurotoxic properties / morphological defects in cultures: reduced axon outgrowth, neuromere size, and suppressed GFP expression
  Morphology profiles of Q138 expressing neurons (effect in words): none reverted the morphology profiles of Q138 expressing neurons towards normal
NP-3 mouse HD model
  Striatal degeneration: reduced striatal degeneration

## C[C@@H]1C[C@H]2O[C@@H]2/C=C\C=C\C(=O)Cc2c(Cl)c(O)cc(O)c2C(=O)O1 [Radicicol]
[1]
  Htt-Q138 aggregation (effect in words): reduced Htt-Q138 aggregation
[2]
  Neurotoxic properties / morphological defects in cultures: reduced axon outgrowth, neuromere size, and suppressed GFP expression
  Morphology profiles of Q138 expressing neurons (effect in words): none reverted the morphology profiles of Q138 expressing neurons towards normal

## O=C(Nc1ccc(Br)cc1)c1cccc(S(=O)(=O)Nc2ccc(Br)cc2)c1 [C2-8]
[1]
  Htt-Q138 aggregation (effect in words): reduced Htt-Q138 aggregation
[2]
  Neurotoxic properties / morphological defects in cultures: reduced axon outgrowth, neuromere size, and suppressed GFP expression
  Morphology profiles of Q138 expressing neurons (effect in words): none reverted the morphology profiles of Q138 expressing neurons towards normal

## CC1(C)[C@@H](O)CC[C@]2(C)[C@H]3C(=O)C=C4[C@@H]5C[C@@](C)(C(=O)O)CC[C@]5(C)CC[C@@]4(C)[C@]3(C)CC[C@@H]12 [18β-Glycyrrhetinic acid]
[4]
  Viability of Htt-Q138 expressing larvae / rescue of Htt-Q138 lethality: rescue HD toxicity in vivo
[4]; listed as 180-Glycyrrhetinic acid
  Viability of Htt-Q138 expressing larvae / rescue of Htt-Q138 lethality: almost as efficacious as Rapamycin
PC12 cells
  Neurotoxicity in PC12 cellular stress model: suppresses neurotoxicity
Gap junction
  Gap junction activity: block gap junction activity

## CC[C@@]1(O)C(=O)OCc2c1cc1n(c2=O)Cc2cc3ccccc3nc2-1 [Camptothecin]
[1]
  Htt-Q138 aggregate formation (effect in words): rescue aggregate formation
[2]; primary neural cultures
  Neurotoxic properties / morphological defects in cultures: did not observe morphological defects
[2]; range of concentrations (56 μM, 5.6 μM)
  Dystrophic morphology profiles (effect in words): partially reverting dystrophic morphology profiles
[3]
  Aggregate formation (confocal): reduces aggregate formation
[3]; mutant cultures, p<0.05, n=4
  Number of Htt138Q pixels/neuronal area (Htt-RFP pixels/neuromere and neurite GFP pixels): increase
[4]
  Viability of Htt-Q138 expressing larvae / rescue of Htt-Q138 lethality: increased larval longevity in vivo, but to a lesser extent than Rapamycin
[5]
  Precipitation when added to cultures: readily precipitates when added to cultures

From patent US20130303562A1, “CHEMICAL AND RNAI SUPPRESSORS OF NEUROTOXICITY IN HUNTINGTON'S DISEASE” (priority 2010, published 2013)
